Measured values as given in PMC7516806, “Hybrid Antimicrobial Peptide Targeting Staphylococcus aureus and Displaying Anti-infective Activity in a Murine Model” (Frontiers in Microbiology, 2020).
Positions of bridges follow the written chain, without caps; N, C: chain ends. Residues, ends and D or L forms follow the SMILES beside them.

Tests used:
L. plantarum 8014 = test: MIC, modified microtiter dilution; format: cell-based, Lactobacillus plantarum; settings: 2–7 × 10^5 CFU/ml, 37°C, 24 h, no turbidity, at least three independent repeats
Source text: (§1) The experiment was repeated at least three times independently.

E. coli UB1005 = test: MIC, modified microtiter dilution; format: cell-based, Escherichia coli; settings: MHB, 2–7 × 10^5 CFU/ml, 37°C, 24 h, no turbidity, at least three independent repeats
Source text: as §1

E. coli 25922 = test: MIC, modified microtiter dilution; format: cell-based, Escherichia coli; settings: MHB, 2–7 × 10^5 CFU/ml, 37°C, 24 h, lowest concentration with no turbidity, at least three independent repeats
Source text: as §1

RAW 264.7 cells = test: Cytotoxicity, MTT dye reduction assay; format: cell-based, murine; settings: highest concentration of 128 μM, 4 h, three independent repeats
Description: The cytotoxicity of peptides was determined by healthy human erythrocytes and the murine macrophage cell line RAW 264.7 via a hemolysis assay and MTT dye reduction assay, respectively ([Wang et al., 2018]). In the hemolysis assay, fresh hRBCs from healthy people were centrifuged for 5 min at 1,000 × g and then washed three times with PBS (pH = 7.2). The 100 μL erythrocyte suspension and peptides were incubated for 1.5 h in an incubator at 37°C. The 96-well plates were centrifuged at 1,000 × g for 5 min, and the supernatants were carefully aspirated. The absorbance at 570 nm indicated the leakage of hemoglobin. The hRBCs in the PBS sample was used as the negative control, and 0.1% Triton X-100 addition served as the positive control. In the MTT dye reduction assay, 1.0–2.0 × 10^5 cells were plated in 96-well plates and then treated with various concentrations of peptides for 4 h at 37°C in a 5% CO2 incubator. Subsequently, 50 μL of MTT was added to the plated cells at a final concentration of 0.5 mg/mL and incubated for 4 h. Then, the cells were centrifuged at 1000 × g for 5 min, and the supernatants were discarded. Formazan crystals were dissolved in 150 μL of DMSO, and the OD570 nm was measured using a microplate reader (TECAN GENios F129004; TECAN, Austria). The experiment was repeated three times independently.

S. aureus 29213 [1] = test: MIC, modified microtiter dilution; format: cell-based, Staphylococcus aureus; settings: MHB, 2–7 × 10^5 CFU/ml, 37°C, 24 h, no turbidity, at least three independent repeats
Source text: as §1

S. aureus 25923 = test: MIC, modified microtiter dilution; format: cell-based, Staphylococcus aureus; settings: MHB, 2–7 × 10^5 CFU/ml, 37°C, 24 h, no turbidity, at least three independent repeats
Source text: as §1

P. aeruginosa 27853 = test: MIC, modified microtiter dilution; format: cell-based, Pseudomonas aeruginosa; settings: MHB, 2–7 × 10^5 CFU/ml, 37°C, 24 h, no turbidity, at least three independent repeats
Source text: as §1

S. aureus 29213 [2] = test: MIC in the presence of physiological salts; format: cell-based, Staphylococcus aureus; settings: three independent repeats, unit not given in Table 4
Description: as §1
The MIC of peptides was determined in the presence of salts at physiological concentrations (150 mM NaCl, 4.5 mM KCl, 6 μM NH4Cl, 8 μM ZnCl2, 1 mM MgCl2, 2 mM CaCl2, and 4 μM FeCl3) as described previously ([Dong et al., 2014]). All experiments were performed three times independently.

L. rhamnosus 1.0385 = test: MIC, modified microtiter dilution; format: cell-based, Lactobacillus rhamnosus; settings: 2–7 × 10^5 CFU/ml, 37°C, 24 h, no turbidity, at least three independent repeats
Source text: as §1

L. rhamnosus 1.0936 = test: MIC, modified microtiter dilution; format: cell-based, Lactobacillus rhamnosus; settings: 2–7 × 10^5 CFU/ml, 37°C, 24 h, no turbidity, at least three independent repeats
Source text: as §1

L. rhamnosus 7469 = test: MIC, modified microtiter dilution; format: cell-based, Lactobacillus rhamnosus; settings: 2–7 × 10^5 CFU/ml, 37°C, 24 h, no turbidity, at least three independent repeats
Source text: as §1

L. rhamnosus 1.0911 = test: MIC, modified microtiter dilution; format: cell-based, Lactobacillus rhamnosus; settings: 2–7 × 10^5 CFU/ml, 37°C, 24 h, no turbidity, at least three independent repeats
Source text: as §1

S. pullorum 7913 = test: MIC, modified microtiter dilution; format: cell-based, Salmonella pullorum; settings: MHB, 2–7 × 10^5 CFU/ml, 37°C, 24 h, no turbidity, at least three independent repeats
Source text: as §1

S. typhimurium 7731 = test: MIC, modified microtiter dilution; format: cell-based, Salmonella typhimurium; settings: MHB, 2–7 × 10^5 CFU/ml, 37°C, 24 h, no turbidity, at least three independent repeats
Source text: as §1

S. typhimurium 14028 = test: MIC, modified microtiter dilution; format: cell-based, Salmonella typhimurium; settings: MHB, 2–7 × 10^5 CFU/ml, 37°C, 24 h, no turbidity, at least three independent repeats
Source text: as §1

E. coli K88 = settings: MHB, 2–7 × 10^5 CFU/ml, 37°C, 24 h, no turbidity, at least three independent repeats
Source text: (§2) The bacterial strains Escherichia coli (E. coli) ATCC 25922, E. coli K88, E. coli K99, Pseudomonas aeruginosa (P. aeruginosa) ATCC 27853, Escherichia coli (E. coli) UB1005, Salmonella typhimurium 14028, Salmonella pullorum (S. pullorum) C7913, S. typhimurium C7731, S. aureus ATCC 29213, MRSA ATCC 43300, and S. aureus ATCC 25923 were obtained from the College of Veterinary Medicine, Northeast Agricultural University, China. Lactobacillus plantarum (L. plantarum) 8014, Lactobacillus rhamnosus (L. rhamnosus) 7469, L. rhamnosus 1.0911, L. rhamnosus 1.0936, and L. rhamnosus 1.0385 were obtained from the Key Laboratory of Food College, Northeast Agricultural University, China.
(§3) As in a previous study, the antimicrobial activities of the AMPs were investigated using a modified standard microtiter dilution method ([Dong et al., 2014]). The peptides were serially diluted with a solution containing 0.01% acetic acid and 0.2% bovine serum albumin (BSA, Sigma) in 96-well plates. The bacteria grew to the mid-log phase and then were dissolved in MHB at concentration of 2–7 × 10^5 CFU/ml. The peptides and bacterial solution were mixed in equal volume in a 37°C incubator for 24 h. […] Mueller-Hinton broth with microorganisms was used as the positive control, and the pure broth was used as the negative control. The experiment was repeated at least three times independently.

E. coli K99 = settings: MHB, 2–7 × 10^5 CFU/ml, 37°C, 24 h, no turbidity, at least three independent repeats
Source text: as §2, §3

MRSA 43300 = format: cell-based, Staphylococcus aureus; settings: MHB, 2–7 × 10^5 CFU/ml, 37°C, 24 h, no turbidity, at least three independent repeats
Source text: as §1

[3] = tested on: panel of bacterial species; test: MIC against a panel of bacterial species (summary statements); format: cell-based; settings: all tested bacteria, up to the highest concentration measured
Source text: as §1

S. aureus 29213 [4] = test: Cytoplasmic membrane depolarization, diSC3-5; format: cell-based, Staphylococcus aureus; settings: 0.4 μM diSC3-5, 100 mM KCl, ex 622 nm, em 670 nm
Description: The dye diSC3-5 was employed to assay cytoplasmic membrane depolarization activities ([Shao et al., 2018]). S. aureus 29213 was diluted to an OD600 = 0.05 after washing three times with buffer (5 mM HEPES, 5 mM glucose, pH 7.4) when the bacteria grew to mid-log phase. Then, diSC3-5 at a final concentration of 0.4 μM was added into the medium and incubated for 1–1.5 h. The final concentration of 100 mM KCl was then added to the solution for 15 min. The peptides were added to 12-well plates, which were filled with 2 mL of cell suspension. An F-4500 fluorescence spectrophotometer (Hitachi, Japan) was employed to measure the fluorescence value at an excitation wavelength of 622 nm and an emission wavelength of 670 nm. Maximal augmentation was monitored, and the fluorescence of the mixture of bacteria and dye served as the blank control.

[5] = tested on: Staphylococcus aureus 29213; test: Propidium iodide uptake assay; format: cell-based; settings: 0.5 × MIC, MIC and 2 × MIC; 10 μg/mL PI; ex 535 nm, em 617 nm
Description: Staphylococcus aureus 29213 was washed three times with buffer (5 mM HEPES, 5 mM glucose, pH 7.4) after the bacterium grew to the mid-log phase and then diluted to an OD600 = 0.05. Propidium iodide was then added to the final concentration of 10 μg/mL and incubated for 30 min at 4°C. The peptides were added to 12-well plates, which were filled with 2 mL of the cell suspension. An F-4500 fluorescence spectrophotometer (Hitachi, Japan) was employed to measure the fluorescence value at an excitation wavelength of 535 nm and an emission wavelength of 617 nm. Maximal augmentation was monitored, and the fluorescence of the mixture of bacteria and dye served as the blank control ([Morita et al., 2015]).

## C[C@H](NC(=O)[C@H](C)NC(=O)[C@H](Cc1c[nH]c2ccccc12)NC(=O)[C@H](Cc1c[nH]c2ccccc12)NC(=O)[C@H](Cc1c[nH]c2ccccc12)NC(=O)[C@H](CCCNC(=N)N)NC(=O)[C@@H]1CSSC[C@H](N)C(=O)N[C@@H](C)C(=O)N[C@@H](CO)C(=O)N[C@@H](Cc2ccc(O)cc2)C(=O)N[C@@H](Cc2ccccc2)C(=O)N1)C(N)=O [Peptide S3] (H-CASYFCRWWWAA-NH2; disulfide 1-6; N-terminus assumed)
L. plantarum 8014
  MIC L. plantarum 8014: >64 µM
E. coli UB1005
  MIC E. coli UB1005: >64 µM
E. coli 25922
  MIC E. coli 25922: >64 µM
RAW 264.7 cells
  RAW 264.7 cell survival rate: 84%
S. aureus 29213 [1]
  MIC S. aureus 29213: >64 µM
S. aureus 25923
  MIC S. aureus 25923: >64 µM
P. aeruginosa 27853
  MIC P. aeruginosa 27853: >64 µM
S. aureus 29213 [2]; 4 μM FeCl3
  MIC against S. aureus 29213, FeCl3: >64 µM
S. aureus 29213 [2]; 6 μM NH4Cl
  MIC against S. aureus 29213, NH4Cl: >64 µM
S. aureus 29213 [2]; 8 μM ZnCl2
  MIC against S. aureus 29213, ZnCl2: >64 µM
S. aureus 29213 [2]; 1 mM MgCl2
  MIC against S. aureus 29213, MgCl2: >64 µM
S. aureus 29213 [2]; 2 mM CaCl2
  MIC against S. aureus 29213, CaCl2: >64 µM
S. aureus 29213 [2]; 4.5 mM KCl
  MIC against S. aureus 29213, KCl: >64 µM
S. aureus 29213 [2]; 150 mM NaCl
  MIC against S. aureus 29213, NaCl: >64 µM
L. rhamnosus 1.0385
  MIC L. rhamnosus 1.0385: >64 µM
L. rhamnosus 1.0936
  MIC L. rhamnosus 1.0936: >64 µM
L. rhamnosus 7469
  MIC L. rhamnosus 7469: >64 µM
L. rhamnosus 1.0911
  MIC L. rhamnosus 1.0911: >64 µM
S. pullorum 7913
  MIC S. pullorum 7913: >64 µM
S. typhimurium 7731
  MIC S. typhimurium 7731: >64 µM
S. typhimurium 14028
  MIC S. typhimurium 14028: >64 µM
E. coli K88
  MIC E. coli K88: >64 µM
E. coli K99
  MIC E. coli K99: >64 µM
MRSA 43300
  MIC MRSA 43300: >64 µM
[3]
  antimicrobial activity against the tested microorganisms: failed to show antimicrobial activity

## melittin [reference compound]
S. aureus 29213 [4]
  cytoplasmic membrane depolarization (diSC3-5 fluorescence): rapid fluorescence intensity increase
[5]
  PI uptake (PI fluorescence): rapidly disrupted the bacterial membrane and caused PI uptake
